The record followed here is US20130331412A9, “Pharmaceutical Compositions and Administrations Thereof” (VERTEX PHARMACEUTICALS INCORPORATED, priority 2010, published 2013).

Molecules are shown by their SMILES.

Common to all, as to assay type: cell-based
In one test the target is T1, ΔF508-CFTR (Homo sapiens, UniProt P13569, DEL508-508).
T1 construct: expressed in transfected cells; host or cells: NIH3T3 mouse fibroblasts
Briefly: Membrane potential optical assay for ΔF508-CFTR potentiation (FLIPR III). The following applies: relative efficacy; ΔF508-CFTR NIH 3T3 cells. The source says:
The assay utilizes fluorescent voltage sensing dyes to measure changes in membrane potential using a fluorescent plate reader (e.g., FLIPR III, Molecular Devices, Inc.) as a readout for increase in functional ΔF508-CFTR in NIH 3T3 cells. The driving force for the response is the creation of a chloride ion gradient in conjunction with channel activation by a single liquid addition step after the cells have previously been treated with compounds and subsequently loaded with a voltage sensing dye. To identify potentiators of ΔF508-CFTR, a double-addition HTS assay format was developed. This HTS assay utilizes fluorescent voltage sensing dyes to measure changes in membrane potential on the FLIPR III as a measurement for increase in gating (conductance) of ΔF508 CFTR in temperature-corrected ΔF508 CFTR NIH 3T3 cells. The driving force for the response is a Cl^− ion gradient in conjunction with channel activation with forskolin in a single liquid addition step using a fluorescent plate reader such as FLIPR III after the cells have previously been treated with potentiator compounds (or DMSO vehicle control) and subsequently loaded with a redistribution dye. Bath Solution #1: (in mM) NaCl 160, KCl 4.5, CaCl2 2, MgCl2 1, HEPES10, pH 7.4 with NaOH. Chloride-free bath solution: Chloride salts in Bath Solution #1 (above) are substituted with gluconate salts. […]

The target of another test is T2, human CFTR mutant A455E (Homo sapiens, UniProt P13569, A455E).
T2 construct: expressed in transfected cells; host or cells: Fisher rat thyroid (FRT) FlpIn cells, pcDNA5/FRT
T2 sequence (P13569 whole entry A455E): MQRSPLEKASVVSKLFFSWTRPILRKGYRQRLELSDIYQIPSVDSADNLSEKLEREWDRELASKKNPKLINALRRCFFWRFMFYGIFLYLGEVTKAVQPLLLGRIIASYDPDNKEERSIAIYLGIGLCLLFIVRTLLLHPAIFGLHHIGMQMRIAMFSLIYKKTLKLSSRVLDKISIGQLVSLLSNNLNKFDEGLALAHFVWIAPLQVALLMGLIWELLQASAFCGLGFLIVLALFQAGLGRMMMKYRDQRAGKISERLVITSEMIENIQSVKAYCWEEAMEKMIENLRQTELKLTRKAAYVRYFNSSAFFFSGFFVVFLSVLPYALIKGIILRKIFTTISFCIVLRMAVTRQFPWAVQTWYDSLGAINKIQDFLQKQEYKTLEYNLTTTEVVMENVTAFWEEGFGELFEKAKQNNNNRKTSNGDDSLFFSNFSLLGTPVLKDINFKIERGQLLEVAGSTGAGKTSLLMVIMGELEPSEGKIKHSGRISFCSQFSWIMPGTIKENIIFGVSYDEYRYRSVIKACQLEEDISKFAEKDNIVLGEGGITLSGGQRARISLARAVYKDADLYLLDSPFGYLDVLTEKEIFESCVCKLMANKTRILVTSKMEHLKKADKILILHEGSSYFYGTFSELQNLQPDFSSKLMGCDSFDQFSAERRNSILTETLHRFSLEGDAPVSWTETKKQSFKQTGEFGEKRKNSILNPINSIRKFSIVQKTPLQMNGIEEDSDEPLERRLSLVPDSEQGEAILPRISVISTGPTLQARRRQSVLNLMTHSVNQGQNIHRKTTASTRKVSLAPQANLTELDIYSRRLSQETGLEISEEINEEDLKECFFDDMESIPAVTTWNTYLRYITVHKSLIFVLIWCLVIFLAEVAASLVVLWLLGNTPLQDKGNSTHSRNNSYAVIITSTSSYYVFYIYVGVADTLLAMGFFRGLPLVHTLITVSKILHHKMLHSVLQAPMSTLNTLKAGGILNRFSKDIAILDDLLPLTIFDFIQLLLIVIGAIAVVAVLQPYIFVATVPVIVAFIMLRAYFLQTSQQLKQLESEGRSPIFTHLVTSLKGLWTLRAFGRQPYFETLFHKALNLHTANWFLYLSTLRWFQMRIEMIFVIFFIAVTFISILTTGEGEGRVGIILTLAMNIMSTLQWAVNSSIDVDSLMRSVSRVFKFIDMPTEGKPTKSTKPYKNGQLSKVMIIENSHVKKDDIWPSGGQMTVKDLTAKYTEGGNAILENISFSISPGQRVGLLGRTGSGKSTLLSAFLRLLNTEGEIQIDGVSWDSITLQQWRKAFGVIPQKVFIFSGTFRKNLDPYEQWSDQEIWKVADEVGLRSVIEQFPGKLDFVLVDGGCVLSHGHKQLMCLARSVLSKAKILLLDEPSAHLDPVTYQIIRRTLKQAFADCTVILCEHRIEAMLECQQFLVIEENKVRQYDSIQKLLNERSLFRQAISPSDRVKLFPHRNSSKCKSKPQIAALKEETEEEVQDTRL
Nature of the test: FRT cell Ussing chamber chloride transport assay. As to conditions: FRT cells expressing A455E CFTR. The source says:
(§1) DNA cloning: Wild-type CFTR coding region was inserted into pcDNA5/FRT (Invitrogen, San Diego, Calif.) between EcoRV and ApaI.
(§2) Single CFTR gene mutations were introduced into the wild-type CFTR coding sequence by using QuickChange XL site-directed mutagenesis kit (Stratagene, Cambridge, UK). The CFTR coding region as well as its promoter sequence and 3′ untranslated sequence was fully sequenced to confirm the mutagenesis reaction.
(§3) The CFTR gene was stably expressed in Fisher rat thyroid (FRT) cells through FlpIn system. The FRT-FlpIn host cell line was generated by stably transfecting FRT cells with pFRT/lacZeo. The single integration of a FRT site was confirmed by Southern blot. After the mutant CFTR DNA was transfected into the FRT-FlpIn host cell line, the cells were incubate at 37° C. in Coon's modified Ham's F12 containing 10% FBS, 1% Pen/Strep, and 36 ml of Na− Bicarbonate for up to 8 passages under hygromycin selection (200 ug/ml).
(§4) All cells were grown on Costar® Snapwell™ cell culture inserts at maintained at 37° C. prior to recording. The cell culture inserts were mounted into an Ussing chamber (VCC MC8; Physiologic Instruments, Inc., San Diego, Calif.) to record ISC in the voltage-clamp mode (Vhold=0 mV). For FRT cells, the basolateral membrane was permeabilized with 360 μg/ml Nystatin and a basolateral to apical Cl− gradient was established. The basolateral bath solution contained (in mM); 135 NaCl, 1.2 CaCl2, 1.2 MgCl2, 2.4 K2HPO4, 0.6 KHPO4, 10 N-2-hydroxyethylpiperazine-N′-2-ethanesulfonic acid (HEPES), and 10 dextrose (titrated to pH 7.4 with NaOH). The apical NaCl was replaced by equimolar Na+ gluconate (titrated to pH 7.4 with NaOH). For HBE cells, the ISC was measured in the presence of a basolateral to apical Cl− gradient. The normal Cl− solution contained (in mM) 145 NaCl, 3.3 K2HPO4, 1.2 MgCl2, 1.2 CaCl2, 10 Glucose, 10 HEPES (pH adjusted to 7.35 with NaOH) and the low Cl− solution contained (in mM) 145 NaGluconate, 1.2 MgCl2, 1.2 CaCl2, 10 glucose, 10 HEPES (pH adjusted to 7.35 with NaOH). All recordings were digitally acquired using a Acquire and Analyze software (version 2; Physiologic Instruments, Inc. San Diego, Calif.).
(§5) The 10 μM forskolin stimulated response in FRT cell expressing different mutant CFTR forms or in HBE cells isolated from CF patients was normalized to the 10 μM forskolin-stimulated response in FRT cells expressing wild-type CFTR or in HBE isolated from non-CF individuals and expressed as % wild-type CFTR. In HBE, amiloride was added prior to forskolin application to block the epithelial Na+ channel.

For another test, the target named is T3, human CFTR mutant D110E (Homo sapiens, UniProt P13569, D110E).
T3 construct: expressed in transfected cells; host or cells: Fisher rat thyroid (FRT) FlpIn cells, pcDNA5/FRT
T3 sequence (P13569 whole entry D110E): as the sequence (P13569 whole entry A455E) above, with D110E, E455A counted along it
Nature of the test: FRT cell Ussing chamber chloride transport assay. As to conditions: FRT cells expressing D110E CFTR.
Source text: as §1, §2, §3, §4, §5

The next test addresses T4, human CFTR mutant D110H (Homo sapiens, UniProt P13569, D110H).
T4 construct: expressed in transfected cells; host or cells: Fisher rat thyroid (FRT) FlpIn cells, pcDNA5/FRT
Briefly: FRT cell Ussing chamber chloride transport assay. As to conditions: FRT cells expressing D110H CFTR.
Source text: as §1, §2, §3, §4, §5

The target of the next test is T5, human CFTR mutant D1152H (Homo sapiens, UniProt P13569, D1152H).
T5 construct: expressed in transfected cells
T5 sequence (P13569 whole entry D1152H): as the sequence (P13569 whole entry A455E) above, with E455A, D1152H counted along it
Nature of the test: FRT cell Ussing chamber chloride transport assay. As to conditions: FRT cells expressing D1152H CFTR.
Source text: as §1, §2, §3, §4, §5

The next test has as its target T6, human CFTR mutant D1270N (Homo sapiens, UniProt P13569, D1270N).
T6 construct: expressed in transfected cells; host or cells: Fisher rat thyroid (FRT) FlpIn cells, pcDNA5/FRT
Nature of the test: FRT cell Ussing chamber chloride transport assay. The following applies: FRT cells expressing D1270N CFTR.
Source text: as §1, §2, §3, §4, §5

The next test has as its target T7, human CFTR mutant D579G (Homo sapiens, UniProt P13569, D579G).
T7 construct: expressed in transfected cells; host or cells: Fisher rat thyroid (FRT) FlpIn cells, pcDNA5/FRT
Briefly: FRT cell Ussing chamber chloride transport assay. As to conditions: FRT cells expressing D579G CFTR.
Source text: as §1, §2, §3, §4, §5

A further test concerns the target T8, human CFTR mutant E56K (Homo sapiens, UniProt P13569, E56K).
T8 construct: expressed in transfected cells; host or cells: Fisher rat thyroid (FRT) FlpIn cells, pcDNA5/FRT
Briefly: FRT cell Ussing chamber chloride transport assay. The following applies: FRT cells expressing E56K CFTR.
Source text: as §1, §2, §3, §4, §5

In the next test the target is T9, human CFTR mutant F1074L (Homo sapiens, UniProt P13569, F1074L).
T9 construct: expressed in transfected cells; host or cells: Fisher rat thyroid (FRT) FlpIn cells, pcDNA5/FRT
T9 sequence (P13569 whole entry F1074L): as the sequence (P13569 whole entry A455E) above, with E455A, F1074L counted along it
Nature of the test: FRT cell Ussing chamber chloride transport assay. The following applies: FRT cells expressing F1074L CFTR.
Source text: as §1, §2, §3, §4, §5

The target of a further test is T10, human CFTR mutant G1244E (Homo sapiens, UniProt P13569, G1244E).
T10 construct: expressed in transfected cells; host or cells: Fisher rat thyroid (FRT) FlpIn cells, pcDNA5/FRT
T10 sequence (P13569 whole entry G1244E): as the sequence (P13569 whole entry A455E) above, with E455A, G1244E counted along it
Briefly: FRT cell Ussing chamber chloride transport assay. The following applies: FRT cells expressing G1244E CFTR.
Source text: as §1, §2, §3, §4, §5

Another test deals with T11, human CFTR mutant G1349D (Homo sapiens, UniProt P13569, G1349D).
T11 construct: expressed in transfected cells; host or cells: Fisher rat thyroid (FRT) FlpIn cells, pcDNA5/FRT
T11 sequence (P13569 whole entry G1349D): as the sequence (P13569 whole entry A455E) above, with E455A, G1349D counted along it
Briefly: FRT cell Ussing chamber chloride transport assay. As to conditions: FRT cells expressing G1349D CFTR.
Source text: as §1, §2, §3, §4, §5

The next test concerns the target T12, human CFTR mutant G178R (Homo sapiens, UniProt P13569, G178R).
T12 construct: expressed in transfected cells; host or cells: Fisher rat thyroid (FRT) FlpIn cells, pcDNA5/FRT
Briefly: FRT cell Ussing chamber chloride transport assay. As to conditions: FRT cells expressing G178R CFTR.
Source text: as §1, §2, §3, §4, §5

The next test deals with T13, human CFTR mutant G551S (Homo sapiens, UniProt P13569, G551S).
T13 construct: expressed in transfected cells; host or cells: Fisher rat thyroid (FRT) FlpIn cells, pcDNA5/FRT
T13 sequence (P13569 whole entry G551S): as the sequence (P13569 whole entry A455E) above, with E455A, G551S counted along it
Nature of the test: FRT cell Ussing chamber chloride transport assay. As to conditions: FRT cells expressing G551S CFTR.
Source text: as §1, §2, §3, §4, §5

T8 sequence (P13569 whole entry E56K): as the sequence (P13569 whole entry A455E) above, with E56K, E455A counted along it
T7 sequence (P13569 whole entry D579G): as the sequence (P13569 whole entry A455E) above, with E455A, D579G counted along it
T4 sequence (P13569 whole entry D110H): as the sequence (P13569 whole entry A455E) above, with D110H, E455A counted along it
T1 sequence (P13569 with tags, fused parts or gaps DEL508-508): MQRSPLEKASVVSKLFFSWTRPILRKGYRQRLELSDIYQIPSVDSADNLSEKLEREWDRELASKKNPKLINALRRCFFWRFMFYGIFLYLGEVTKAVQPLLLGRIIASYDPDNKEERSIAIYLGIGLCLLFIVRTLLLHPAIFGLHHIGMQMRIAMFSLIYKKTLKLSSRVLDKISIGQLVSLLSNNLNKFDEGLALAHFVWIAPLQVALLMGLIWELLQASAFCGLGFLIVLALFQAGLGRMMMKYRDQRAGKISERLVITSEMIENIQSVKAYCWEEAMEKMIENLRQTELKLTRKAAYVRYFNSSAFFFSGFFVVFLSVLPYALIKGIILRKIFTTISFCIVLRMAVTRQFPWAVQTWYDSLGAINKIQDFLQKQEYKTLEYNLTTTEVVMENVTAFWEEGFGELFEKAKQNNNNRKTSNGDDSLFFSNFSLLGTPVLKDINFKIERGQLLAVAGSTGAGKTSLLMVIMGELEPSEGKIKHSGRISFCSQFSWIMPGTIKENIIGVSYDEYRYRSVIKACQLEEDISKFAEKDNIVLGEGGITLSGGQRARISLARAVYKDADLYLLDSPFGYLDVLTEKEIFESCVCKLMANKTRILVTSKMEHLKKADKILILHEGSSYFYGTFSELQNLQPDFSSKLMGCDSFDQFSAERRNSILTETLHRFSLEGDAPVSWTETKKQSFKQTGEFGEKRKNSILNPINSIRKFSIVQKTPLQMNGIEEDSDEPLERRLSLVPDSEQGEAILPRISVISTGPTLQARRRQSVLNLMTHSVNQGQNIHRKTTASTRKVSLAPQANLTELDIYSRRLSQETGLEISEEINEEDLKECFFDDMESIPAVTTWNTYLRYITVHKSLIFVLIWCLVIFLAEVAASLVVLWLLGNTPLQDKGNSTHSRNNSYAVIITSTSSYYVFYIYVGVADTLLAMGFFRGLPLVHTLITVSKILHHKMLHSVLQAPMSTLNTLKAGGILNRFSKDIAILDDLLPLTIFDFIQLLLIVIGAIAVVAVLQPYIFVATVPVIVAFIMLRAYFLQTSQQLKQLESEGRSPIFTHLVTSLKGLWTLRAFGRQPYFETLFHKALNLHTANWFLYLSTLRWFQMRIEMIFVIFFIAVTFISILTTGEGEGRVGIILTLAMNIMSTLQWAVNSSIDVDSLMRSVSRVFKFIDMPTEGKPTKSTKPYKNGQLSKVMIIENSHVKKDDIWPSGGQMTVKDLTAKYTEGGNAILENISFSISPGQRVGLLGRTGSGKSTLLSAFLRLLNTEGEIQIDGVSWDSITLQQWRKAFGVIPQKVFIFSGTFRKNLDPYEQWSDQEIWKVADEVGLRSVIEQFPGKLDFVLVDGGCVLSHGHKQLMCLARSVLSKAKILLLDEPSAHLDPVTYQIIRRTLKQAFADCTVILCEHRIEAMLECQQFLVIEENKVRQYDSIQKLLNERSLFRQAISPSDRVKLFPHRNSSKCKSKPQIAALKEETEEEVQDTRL
T6 sequence (P13569 whole entry D1270N): as the sequence (P13569 whole entry A455E) above, with E455A, D1270N counted along it
T12 sequence (P13569 whole entry G178R): as the sequence (P13569 whole entry A455E) above, with G178R, E455A counted along it

With `CC(C)(C)c1cc(C(C)(C)C)c(NC(=O)c2c[nH]c3ccccc3c2=O)cc1O` [Compound 1, N-[2,4-bis(1,1-dimethylethyl)-5-hydroxyphenyl]-1,4-dihydro-4-oxoquinoline-3-carboxamide], at ΔF508-CFTR, the “% Activity” value is “++ (“++” means between 25% to 100%)”. The “increase in chloride transport, relative to baseline chloride transport” value on human CFTR mutant A455E, on human CFTR mutant D110E, on human CFTR mutant D110H, on human CFTR mutant D1152H, at human CFTR mutant D1270N and at human CFTR mutant D579G was “greater than or equal to 10%” each time. Besides, the “increase in chloride transport, relative to baseline chloride transport” value on human CFTR mutant E56K is “greater than or equal to 10%”; on human CFTR mutant F1074L, “greater than or equal to 10%”; at human CFTR mutant G1244E, “greater than 10 fold”; on human CFTR mutant G1349D it was “greater than 10 fold”; on human CFTR mutant G178R, “greater than 10 fold”; on human CFTR mutant G551S, “greater than 10 fold”.
